Assay results: the OPERA property sets (Mansouri et al. 2018)

| Structure (SMILES) | logP |
| --- | --- |
| CC(C)(C)NCC(O)COc1ccccc1C#N (configuration not stated) | 1.6 |
| CC(C)(C)c1cc(C(O)CCC2CCNCC2)c2ccccc2n1 (configuration not stated) | 3.63 |
| O=C(NCC1CCCCN1)c1cc(OCC(F)(F)F)ccc1OCC(F)(F)F (configuration not stated) | 3.78 |
| CCN1CCCC1CNC(=O)c1cc(S(=O)(=O)CC)ccc1OC (configuration not stated) | 1.06 |
| CC(=O)Oc1c(C)cc(OCC(O)CNC(C)C)c(C)c1C (configuration not stated) | 2.66 |
| CC(C)NCC(O)COc1cccc2c1N(C(=O)c1cccnc1)CCC2 (configuration not stated) | 1.63 |
| CNC(=O)Nc1c(OCCN2CCCC2)c(OC)c2occc2c1OC | 1.38 |
| C=CCN1CCCC1CNC(=O)c1cc(S(N)(=O)=O)cc(OC)c1OC (configuration not stated) | 1.47 |
| CC(C)NCCCC1(C(N)=O)c2ccccc2-c2ccccc21 | 3.11 |
| C=CCN1CCCC1CNC(=O)c1cc2nn[nH]c2cc1OC (configuration not stated) | 1.79 |
| CCN1CCCC1CNC(=O)c1cc(S(=O)(=O)CC)c(N)cc1OC (configuration not stated) | 1.1 |
| CN1CCN(CCCN2c3ccccc3Sc3ccccc32)CC1 | 4 |
